Data reported in the supplement of paper PMC10307832.

Key:
R406 + Foretinib = compound: COc1cc(Nc2ncc(F)c(Nc3ccc4c(n3)NC(=O)C(C)(C)O4)n2)cc(OC)c1OC [R406] + COc1cc2c(Oc3ccc(NC(=O)C4(C(=O)Nc5ccc(F)cc5)CC4)cc3F)ccnc2cc1OCCCN1CCOCC1 [Foretinib] (partner 0.25 µM); experiment: relative viability (nuclei count vs DMSO), 5 days (fraction); higher = more cells survive
Outline: (§1)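 Lung cancer cell lines in 1536-well plates were dosed by pin tool the day after seeding, either with one drug alone or with a fixed anchor-drug dose plus five library-drug doses (not always all listed) in √10 steps. After 5 days, cells were fixed and their nuclei stained in one step (final 0.05% Triton X-100, 1% formaldehyde, 1 ug/ml Hoechst), then counted on 4× images. Relative viability is the nuclei count in treated wells divided by that in vehicle wells. Values are medians of duplicate plates.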

Daporinad + Tozasertib = compound: O=C(/C=C/c1cccnc1)NCCCCC1CCN(C(=O)c2ccccc2)CC1 [Daporinad] + Cc1cc(Nc2cc(N3CCN(C)CC3)nc(Sc3ccc(NC(=O)C4CC4)cc3)n2)n[nH]1 [Tozasertib] (partner 0.1 µM); experiment: as above
Outline: as §1

Cell Line | relative viability (R406 + Foretinib; first compound 0.08 µM) | relative viability (R406 + Foretinib; first compound 0.253 µM) | relative viability (R406 + Foretinib; first compound 0.8 µM) | relative viability (R406 + Foretinib; first compound 2.53 µM) | relative viability (R406 + Foretinib; first compound 8 µM) | relative viability (Daporinad + Tozasertib; first compound 0.0005 µM) | relative viability (Daporinad + Tozasertib; first compound 0.001581 µM) | relative viability (Daporinad + Tozasertib; first compound 0.005 µM) | relative viability (Daporinad + Tozasertib; first compound 0.01581 µM)
NCI-H460 | 0.887 | 1.13 | 1.16 | 1.07 | 0.781 | 0.43 | 0.386 | 0.6 | 0.56
EPLC-272H | 0.425 | 0.617 | 0.792 | 0.304 | 0.126 | 0.256 | 0.292 | 0.493 | 0.4
